According to a melting point compilation (Tetko et al.):

Row | Compound | melting point [°C]
1 | CCOC(=O)C(CCC#N)(CCC#N)C(=O)OCC | 62
2 | Nc1ccccc1S(N)(=O)=O | 155
3 | COC(=O)c1ccc(C(N)=O)cc1 | 206
4 | O[C@@H]1CC2=C(CC=CC2)C[C@@H]1O | 139 to 140
5 | O=Cc1ccnc(Cl)c1 | 47.5
6 | CC1COC(Cn2cncn2)(c2ccc(Oc3ccc(Cl)cc3)cc2Cl)O1 (stereo unspecified) | 76
7 | CC(=O)c1ccc(C)cc1O | 21
8 | Cc1c2c(c(C)c3c1C(=O)C3)C(=O)C2 | 237 to 238
9 | COc1cc(C(=O)O)c([N+](=O)[O-])cc1OC | 195 to 197
10 | CCOC(=O)C1CC(=O)C(=C(O)C2CC2)C(=O)C1 (stereo unspecified) | 36
11 | Clc1cc(Cl)c2c(c1Cl)Oc1c(Cl)cc(Cl)c(Cl)c1O2 | 238
12 | CC(C)(C)C(O)C(Cc1ccc(Cl)cc1)n1cncn1 (stereo unspecified) | 166
13 | Nc1cc(N)c(C(=O)CI)cc1C(=O)CI | 165
14 | Cc1cscc1S(=O)(=O)c1ccc(Cl)cc1 | 102 to 104
15 | BrCc1ccc(-c2cccs2)cc1 | 83 to 84
16 | CC(C)=CCCC(C)C1=C(O)C(=O)C(C)=CC1=O (stereo unspecified) | 104
17 | CCCCCC(C=O)=Cc1ccccc1 | 80
18 | CCOC(=O)C1=C(COCCN)NC(C)=C(C(=O)OC)C1c1ccccc1Cl (stereo unspecified) | 178
19 | O=C1CCC2(O)C3Cc4ccc(O)c5c4C2(CCN3CC2CC2)C1O5 (stereo unspecified) | 169
20 | CC(=O)Nc1ccc(C(C)=O)cc1Br | 140
21 | CCN(CC)CN1C(=O)C(=Cc2ccco2)SC1=S | 145
22 | ON=Cc1c(Cl)cccc1Cl | 149

Row | Compound | melting point [°C]
23 | NCCCN1CCOCC1 | -15
24 | C=C(C(=O)O)c1ccccc1 | 106
25 | O=C(Cc1ccc(/N=C/c2ccccc2)cc1)c1ccc(/N=C/c2ccccc2)cc1 | 181
26 | COc1ccc(/C=C(\Oc2ccccc2)c2nc3ccccc3s2)cc1 | 151
27 | CCC(N)C(O)c1ccccc1 (stereo unspecified) | 79.5
28 | CN(C)C(=S)Oc1ccc2ccccc2c1 | 90
29 | OCCCC(Cl)(Cl)CO | 40 to 42
30 | COC(=O)c1ccc(C(=O)O)cc1[N+](=O)[O-] | 175
31 | NS(=O)(=O)c1cc(C(=O)c2ccc(O)cc2)cs1 | 192
32 | COc1ccc(Br)cc1[N+](=O)[O-] | 87 to 88
33 | N#CC1(c2ccccc2)CCC(=O)CC1 | 115
34 | Cc1ccc(F)c(C=O)c1Cl | 46 to 50
35 | Cc1cc(F)ccc1N | 14.2
36 | CCCCCCCCCCCCCC(O)CC (stereo unspecified) | 50
37 | O=C(Cl)/C=C/c1cccc(C(F)(F)F)c1 | 30
38 | CC(C)c1cc(C(C)C)c(S(=O)(=O)n2cncn2)c(C(C)C)c1 | 111
39 | Nc1ccc(Oc2ccc([N+](=O)[O-])cc2)cc1 | 132 to 134
40 | CCOc1ccc(N)c([N+](=O)[O-])c1 | 110 to 114
41 | NNc1ccc(I)cc1 | 101 to 102
42 | CC(NC(=O)CCCCN1C(=O)c2ccccc2C1=O)[P+]([O-])(Oc1ccccc1)Oc1ccccc1 (stereo unspecified) | 144
43 | CCCCOc1c(-c2nnc(-c3ccc(Cl)cc3)o2)sc(-c2nnc(-c3ccc(Cl)cc3)o2)c1OCCCC | 178
44 | O=C(O)CCCCCCCCCCCCCCC(=O)O | 124 to 126

Row | Compound | melting point [°C]
45 | C=C(C)CCCCCCCCCCCCCCCCC | 20
46 | CCn1c2ccccc2c2cc(N)ccc21 | 99
47 | CCOC(=O)c1cc(=O)c2cc(I)ccc2o1 | 148 to 150
48 | CCOC(=O)C1(C)OC(=O)N(c2cc(Cl)cc(Cl)c2)C1=O (stereo unspecified) | 113
49 | O=[N+]([O-])c1ccc(Oc2c(Cl)cc(Cl)cc2Cl)cc1 | 106
50 | Cn1c(=O)c(C2=NNC(=O)C2=NNc2ccc(Br)cc2)c(O)c2ccccc21 | 260
51 | O=C1C=CC(=O)N1c1ccc(N2C(=O)C=CC2=O)cc1 | 300
52 | CCOC(=O)NC(=S)Nc1cccc(C)n1 | 127 to 129
53 | Cc1cc(O)c(C(C)C)cc1C1(c2cc(C(C)C)c(O)cc2C)OS(=O)(=O)c2ccccc21 | 221
54 | COc1ccc(-c2cc(=O)c3c(O)cc(O)cc3o2)cc1O | 254
55 | CC1(C)OC(=O)C2(CC2)C(=O)O1 | 65
56 | CC(C)(C)c1nc(N)nc(O)n1 | 275
57 | Nc1nc2ccc([N+](=O)[O-])cc2s1 | 247 to 249
58 | O=C(O)c1ccc2nonc2c1 | 157 to 158
59 | Cc1cc2c(o1)-c1c(oc3c(I)cc(I)cc13)CCC2(C)c1ccccc1 (stereo unspecified) | 175
60 | O=C1CC2(CCCC2)CC(=O)N1 | 153 to 155
61 | CCCCCCCCCCCCOc1ccc(C(=O)O)cc1 | 134
62 | Cc1cc[nH]c(=O)c1 | 130
63 | CC12CCC3C(=CCc4cc(O)ccc43)C1CCC2=O (stereo unspecified) | 239
64 | N#Cc1ccnc(Cl)c1 | 71 to 72
65 | CC(C)(C)OC(=O)c1n[nH]c2nc(F)ccc12 | 166 to 168
66 | OCc1cccc(Cn2cncn2)c1 | 56 to 59

Row | Compound | melting point [°C]
67 | CCOC(=O)c1cc(-c2ccc(C)cc2)oc1C | 82 to 83
68 | Cc1ccc(S(=O)(=O)OC(C(F)(F)F)C(F)(F)F)cc1 | 39 to 40
69 | Nc1nc(N)c2nc[nH]c2n1 | 302
70 | OC1(c2ccc(Br)cc2)CCNCC1 | 163 to 168
71 | O=C(NCCc1ccccn1)c1cc([N+](=O)[O-])cc([N+](=O)[O-])c1 | 120
72 | CCOP(=O)(NC(C)C)Oc1ccc(SC)c(C)c1 (stereo unspecified) | 49
73 | O=c1n(CCO)c(=O)n(CCO)c(=O)n1CCO | 138
74 | CCCC/C=C/CCCC | -73
75 | CCOC(=O)c1c(Cl)c(Cl)c(Cl)c(Cl)c1C(=O)O | 94.5
76 | Nc1ccc(Cl)cc1C(=O)NCc1cccs1 | 157 to 158
77 | CC(CO)NC(=O)OC(C)(C)C (stereo unspecified) | 60
78 | C/C(=N\NC(N)=O)C(=O)C(C)Cc1ccccc1 (stereo unspecified) | 112
79 | O=C1C(c2ccccc2)=Nc2cc([N+](=O)[O-])ccc21 | 185
80 | NC(=O)C1=CNCCC1 | 203 to 205
81 | COc1ccc(C=CC(=O)c2ccc(O)cc2)cc1 | 188
82 | Fc1c(F)c(F)c(I)c(F)c1F | -29
83 | O=[N+]([O-])c1ccccc1C=NO | 100
84 | Cc1cc(C)c2cnn(-c3ccccc3)c2n1 | 66
85 | O=[N+]([O-])c1ccc(OCCCBr)cc1 | 56 to 58
86 | O=[N+]([O-])c1ccc(N=Nc2ccccc2)cc1 | 133
87 | Nc1cc(F)c(F)c(Br)c1 | 68
88 | Fc1cc(Cl)cc(CBr)c1 | 25 to 30

Row | Compound | melting point [°C]
89 | Cc1nccn1-c1ccccc1N | 132 to 134
90 | COc1cc(C)c(C=O)c(OC)c1 | 65
91 | Fc1ccc2[nH]ccc2c1 | 45
92 | FC(F)(F)OC(F)(I)C(F)(F)F (stereo unspecified) | 44
93 | COC(=O)c1cc2c(=O)oc3ccccc3c2nc1C | 215
94 | O=C(O)C=C1OC(=O)c2ccccc21 | 287 to 290
95 | O=C(O)c1c(F)c(F)c(F)c(C(=O)O)c1F | 209 to 213
96 | O=Cc1ccc(I)o1 | 127
97 | O=S(O)c1ccccc1 | 84
98 | O=C(Nc1ccc(F)cc1)c1c(O)c(F)c(F)c(F)c1F | 130
99 | CCOC(=O)C(C)C(=O)CC(O)CC1CC=C(C)C1(C)C (stereo unspecified) | 132
100 | COC1OC(C(=O)O)C(OC2OC(C(=O)O)C(OC)C(O)C2O)C(O)C1O (stereo unspecified) | 300
101 | CC1=CC(=C(C#N)C#N)C=C(C=Cc2ccc(N(C)C)cc2)O1 | 212
102 | CCCCCCCOc1ccc(O)cc1 | 61.5
103 | COC(=O)c1sc(SC)c(C#N)c1N | 207
104 | CCOCCOCC | -74
105 | CC(Cc1ccccc1)=NNc1ccccc1 | 85
106 | NC(=NO)c1cccnc1 | 130 to 131
107 | O=C(O)C(Cc1ccc([N+](=O)[O-])cc1)c1ccccc1 (stereo unspecified) | 152
108 | COc1ccc(C(=O)Oc2ccc(C(=O)/C=C/c3ccc4c(c3)OCO4)cc2)cc1 | 169
109 | O=C1/C(=C/c2ccccc2O)SC(=S)N1CN(CCCl)CCCl | 233
110 | CC(=O)NCCS | 6.5

Row | Compound | melting point [°C]
111 | O=C(O)C(=CN(O)c1ccccc1)c1ccccc1 | 75
112 | CC(C)(C)c1nc2ccccc2[nH]1 | 320
113 | S=C=Nc1ccc(Oc2ccccc2)nc1 | 41 to 42
114 | CCCCOC(=O)COc1cc(Cl)c(Cl)cc1Cl | 28.5
115 | CSC(=NOC(=O)N(C)C=C1C=NC=N1)C(=O)N(C)C | 252
116 | O=C1NN=C(C(F)(F)F)C1=NNc1ccccc1C(=O)O | 274
117 | O=[N+]([O-])c1ccc(F)c(Cl)c1 | 44
118 | CC1=Cc2ccccc2C1O (stereo unspecified) | 87
119 | CCOC(=O)c1nc(-c2ccc(S(=O)(=O)Cl)s2)no1 | 114 to 115
120 | OCC(F)(F)C(F)(F)C(F)(F)C(F)(F)C(F)(F)C(F)(F)C(F)(F)C(F)(F)C(F)(F)C(F)F | 95 to 97
121 | CCC(O)C(C)(C)C (stereo unspecified) | -1.67
122 | CC(=O)CC(=O)C(=O)O | 99.5
123 | N#CC(=CNc1ccc(O)cc1)c1ccccc1 | 150
124 | O=Cc1cc([N+](=O)[O-])ccc1F | 58
125 | COc1cccc(C)c1[N+](=O)[O-] | 50
126 | CC(=O)CC(=O)c1c(C)c(C)c(C)c(C)c1C | 73.8 to 75.1
127 | Cc1cc(C)c2c(c1C)CC2 | 20 to 28
128 | O=C(c1ccccc1)c1cccc([N+](=O)[O-])c1 | 92 to 94
129 | O=C1Cc2cccc(F)c21 | 41
130 | CC(C)[C@]12C/C(=N\NC(N)=O)[C@H](C)[C@H]1C2 | 174
131 | CCOC(=O)c1ccc(Br)cc1 | 18
